Values quoted from earlier work in patent publication US20030109508A1, “Methods for treating dry eye” (Alcon, Inc., priority 2001, published 2003).

System: human conjunctival epithelial cells
Conditions: background statement, no data given

CCCCC[C@H](O)/C=C/C=C\C/C=C\C/C=C\CCCC(=O)O [15-HETE]
secretion of mucin-1 (MUC-1): increase the secretion of mucin-1 (MUC-1)
